According to patent US4868176A, “Novel imidazobenzodiazepines” (Roussel Uclaf, priority 1987, dated 1989):

Tested on: leptazol induced seizures in mice
Test: potentiation of the threshold of leptazol induced seizures in mice
Assay type: in vivo
Settings: ip
Procedure: Potentiation of the threshold of leptazol induced seizures in mice by active compounds was measured by the method of Lichfiel et al (J. Pharmacol. Exp. Ther. (1949) Vol. 96 Page. 99).

SMILES	ED50 (Mus musculus)	Leptazol Seizures ED50
CN1Cc2c(C(=O)C3CC3)ncn2-c2ccccc2C1=O [Compound 1, 3-(5,6-dihydro-5-methyl-6-oxo-4H-imidazo[1,5a][1,4]benzodiazepinyl)-cyclopropylmethanone]	1 to 2 mg/kg	–
CN1Cc2c(C(=O)C3CC3)ncn2-c2ccc(Cl)cc2C1=O [Compound 2, (8-Chloro-5,6-dihydro-5-methyl-6-oxo-4H-imidazo[1,5-a][1,4]benzodiazepin-3-yl)-cyclopropylmethanone]	–	Not active
